The values that follow come from paper PMC4364393 (Journal of medicinal chemistry, 2015).

In brackets after ≈: the same amount, converted by molar mass. Like-named read-outs stand apart in the source and are kept apart here.

The subject of test [1] is E. faecalis (Van B) ATCC 51299. In words: MIC, E. faecalis. Type of test: cell-based, Enterococcus faecalis.
Test [2] has as its system E. faecalis (Van A) MMX 486. Briefly: MIC, E. faecalis. The settings on record: Enterococcus faecalis, read-out: MIC, E. faecalis (Van A) MMX 486. Type of test: cell-based.
Test [3] concerns E. faecalis (Van S) ATCC 29212. Briefly: MIC, E. faecalis. The format is cell-based. The settings on record: Enterococcus faecalis, ATCC29212, read-out: MIC, E. faecalis (Van S) ATCC 29212.
The test system of test [4] is Van A phenotype VRE strain. As to conditions: cited from earlier work.

A word on the MIC: it is the smallest concentration in the dilution series that meets the test's criterion for growth inhibition.

With `CC(=O)NC[C@H]1CN(c2ccc(N3CCOCC3)c(F)c2)C(=O)O1` [Linezolid, linezolid], the MIC in test [1] (Enterococcus faecalis, ATCC51299, read-out: MIC, E. faecalis (Van B) ATCC 51299) is 2 mg/L (≈ 5.93 µM); in test [2] it was 2 mg/L (≈ 5.93 µM); in test [3], 2 mg/L (≈ 5.93 µM).
On to `CN[C@H](CC(C)C)C(=O)N[C@H]1C(=O)N[C@@H](CC(N)=O)C(=O)N[C@H]2C(=O)N[C@H]3C(=O)N[C@H](C(=O)N[C@H](C(=O)O)c4cc(O)cc(O)c4-c4cc3ccc4O)[C@H](O)c3ccc(c(Cl)c3)Oc3cc2cc(c3O[C@@H]2O[C@H](CO)[C@@H](O)[C@H](O)[C@H]2O[C@H]2C[C@](C)(N)[C@H](O)[C@H](C)O2)Oc2ccc(cc2Cl)[C@H]1O` [Vancomycin, vancomycin], for which, in test [4] (based on a literature report), the “MIC against Van A phenotype VRE strain” value is 512 mg/L (≈ 353 µM).
In the case of “G4-decanoyl vancomycin derivative [Compound 9b]”, the “times more active against a VRE strain (Van B phenotype)” value in test [1] (fold improvement of MIC, compared with vancomycin) is reported as 64 times.
In the case of teicoplanin A2-2, the “MIC against Van A phenotype VRE strain” value in test [4] is 128 mg/L.
